# Measurements as given in patent US7129244B2, “Triazolopyrimidines and related analogs as HSP90-inhibitors” (Conforma Therapeutics Corporation, priority 2003, dated 2006).
# Tested on: MCF7 breast carcinoma cells
# Test: MTS Assay
# Format: cell-based
# Details: Homo sapiens, concentration giving 50% viable cell number
# Protocol: MTS assays measures the cytotoxicity of geldanamycin derivatives. MTS (3-(4,5-dimethylthiazol-2-yl)-5-(3-carboxymethoxyphenyl)-2-(4-sulfophenyl)-2H-tetrazolium is a tetrazolium dye that is converted to a formazan product by dehydrogenase enzymes of metabolically active cells (Corey, A. et al. “Use of an aqueous soluble tetrazolium/formazan assay for cell growth assays in culture,” Cancer Commun. 1991, 3, 207–212). Cells were seeded in 96 well plates at 2000 cells/well and allowed to adhere overnight in Dulbecco's modified Eagle's medium supplemented with 10% fetal bovine serum. The final culture volume was 100 μl. Viable cell number was determined by using the Celltiter 96 AQueous Non-radioactive Cell Proliferation Assay (Promega, Madison Wis.). The MTS/PMS (phenazine methosulfate) solution was mixed at a ratio of 20:1, and 20 μL was added per well to 100 μl of culture medium. After 2–4 hours, the formation of the formazan product was measured at 490 nm absorbance using a multiwell plate spectrophotometer. Background was determined by measuring the Abs 490 nm of cell culture medium and MTS-PMS in the absence of cells and was subtracted from all values. Percent viable cells was calculated as follows: % viable cells=(Abs at 490 nm treated cells/Abs at 490 nm untreated cells)×100 […]
row,SMILES,IC50 [µM]
1,"COc1c(C)cnc(Cn2nnc3c(Cl)nc(N)nc32)c1C [Example 1, 7-chloro-3-(4-methoxy-3,5-dimethyl-pyridin-2-ylmethyl)-3H-[1,2,3]triazolo[4,5-d]pyrimidin-5-ylamine]",8

# Tested on: HER2/Neu protein
# Test: HER2 Degradation Assay
# Format: cell-based
# Details: Homo sapiens, MCF7, 16 h, MCF7 breast carcinoma cells, 16 h incubation; concentration at which there was 50% degradation of the HER2/Neu protein
# Protocol: MCF7 breast carcinoma cells (ATCC) were grown in Dulbecco's modified Eagle's medium (DMEM) containing 10% fetal bovine serum (FBS) and 10 mM HEPES, and plated in 24 well plates (50% confluent). Twenty-four hrs later (cells are 65–70% confluent), test compounds were added and incubated overnight for 16 h. […] The wells were washed with 1 mL phosphate buffered saline (PBS), and 200 μL trypsin was added to each well. After trypsinization was complete, 50 μL of FBS was added to each well. Then 200 μL cells was transferred to 96 well plates. The cells were pipetted up and down to obtain a single cell suspension. The plates were centrifuged at 2,500 rpm for 1 min using a Sorvall Legend RT™ tabletop centrifuge (Kendro Laboratory Products, Asheville, N.C.). The cells were then washed once in PBS containing 0.2% BSA and 0.2% sodium azide (BA buffer). Phycoerythrin (PE) conjugated anti HER2/Neu antibody (Becton Dickinson, #340552), or PE conjugated anti-keyhole limpet hemacyanin [KLH] (Becton Dickinson, #340761) control antibody was added at a dilution of 1:20 and 1:40 respectively (final concentration was 1 μg/mL) and the cells were pipeted up and down to form a single cell suspension, and incubated for 15 mins. The cells were washed twice with 200 μL BA buffer, and resuspended in 200 μL BA buffer, and transferred to FACSCAN tubes with an additional 250 μL BA buffer. Samples were analyzed using a FACSCalibur™ flow cytometer (Becton Dickinson, San Jose, Calif.) equipped with Argon-ion laser that emits 15 mW of 488 nm light for excitation of the PE fluorochrome. 10,000 events were collected per sample. A fluorescence histogram was generated and the mean fluorescence intensity (MFI) of each sample was determined using Cellquest software. The background was defined as the MFI generated from cells incubated with control IgG-PE, and was subtracted from each sample stained with the HER2/Neu antibody. Cells incubated with DMSO was always done as untreated controls since the compounds were resuspended in DMSO. Percent degradation of HER2 was calculated as follows: % HER2 degraded=[(MFl untreated cells−MFl treated cells)/MFl untreated cell]×100
# IC50 is defined as the concentration at which there was 50% degradation of the HER2/Neu protein.
row,SMILES,IC50 [µM]
1,"COc1cc(Cn2nnc3c(Cl)nc(N)nc32)cc(OC)c1OC [Example 5, 7-chloro-3-(3,4,5-trimethoxy-benzyl)-3H-[1,2,3]triazolo[4,5-d]pyrimidin-5-ylamine]",15
2,"COc1cc(Cl)c(OC)c(Cn2nnc3c(Cl)nc(N)nc32)c1 [Example 17, 7-chloro-3-(3-chloro-2,5-dimethoxy-benzyl)-3H-[1,2,3]triazolo[4,5-d]pyrimidin-5-ylamine]",19
3,"COc1cc(Cn2nnc3c(Cl)nc(N)nc32)c(Cl)c(OC)c1OC [Example 6, 7-chloro-3-(2-chloro-3,4,5-trimethoxy-benzyl)-3H-[1,2,3]triazolo[4,5-d]pyrimidin-5-ylamine]",12
4,"COc1cc(Cn2nnc3c(Cl)nc(N)nc32)c(OC)cc1Br [Example 16, 7-chloro-3-(4-bromo-2,5-dimethoxy-benzyl)-3H-[1,2,3]triazolo[4,5-d]pyrimidin-5-ylamine]",22
5,"COc1cc(Cn2nnc3c(Cl)nc(N)nc32)c(I)c(OC)c1OC [Example 10, 7-chloro-3-(2-iodo-3,4,5-trimethoxy-benzyl)-3H-[1,2,3]triazolo [4,5-d]pyrimidin-5-ylamine]",10
6,"COc1cc(Cn2nnc3c(Cl)nc(N)nc32)c(Br)c(OC)c1OC [Example 8, 7-chloro-3-(2-bromo-3,4,5-trimethoxy-benzyl)-3H-[1,2,3]triazolo[4,5-d]pyrimidin-5-ylamine]",6.5
7,"COc1c(C)cnc(Cn2nnc3c(Cl)nc(N)nc32)c1C [Example 1, 7-chloro-3-(4-methoxy-3,5-dimethyl-pyridin-2-ylmethyl)-3H-[1,2,3]triazolo[4,5-d]pyrimidin-5-ylamine]",0.4
8,"COc1cc(Cn2nnc3c(Cl)nc(N)nc32)c(Cl)c(OC)c1 [Example 12, 7-chloro-3-(2-chloro-3,5-dimethoxy-benzyl)-3H-[1,2,3]triazolo[4,5-d]pyrimidin-5-ylamine]",8.5
9,"COc1cc(Cn2nnc3c(Cl)nc(N)nc32)c(Br)c(OC)c1 [Example 13, 7-chloro-3-(2-bromo-3,5-dimethoxy-benzyl)-3H-[1,2,3]triazolo[4,5-d]pyrimidin-5-ylamine]",16
10,"COc1c(Br)c(Cn2nnc3c(Cl)nc(N)nc32)c(Br)c(OC)c1OC [Example 9, 7-Chloro-3-(2,6-dibromo-3,4,5-trimethoxy-benzyl)-3H-[1,2,3]triazolo[4,5-d]pyrimidin-5-ylamine]",6.3
11,"COc1c(Cl)c(Cn2nnc3c(Cl)nc(N)nc32)c(Cl)c(OC)c1OC [Example 7, 7-Chloro-3-(2,6-dichloro-3,4,5-trimethoxy-benzyl)-3H-[1,2,3]triazolo[4,5-d]pyrimidin-5-ylamine]",4
